Measured values published in US7671058B2, “N-(3,4-disubstituted phenyl) salicylamide derivatives” (Institute of Medicinal Molecular Design, Inc., priority 2006, dated 2010).

Experiments:
NF-κB = NF-κB inhibition test: pNFκB-Luc luciferase reporter in U2-OS cells stimulated with human TNF α; format: cell-based; conditions: human TNF α 10 ng/mL; for Inhibition Rate of NF-κB (%): compound 2 μM, 8 hours
STAT6 = STAT6 inhibition test: (GLS)x8/pTA-Luc luciferase reporter in U2-OS cells stimulated with human IL-4; format: cell-based; conditions: human IL-4 40 ng/mL; for Inhibition Rate of STAT6 (%): compound 2 μM, 8 hours

SMILES	Inhibition Rate of NF-κB (%) (NF-κB)	Inhibition Rate of STAT6 (%) (STAT6)	IC50 (NF-κB; from inhibition rates at 1, 0.1, 0.01 and 0.001 μM, read-out: IC50 against activation of NF-κB) [nM]	IC50 (STAT6; from inhibition rates at 1, 0.1, 0.01 and 0.001 μM, read-out: IC50 against activation of STAT6) [nM]
O=C(Nc1ccc(N2CCSCC2)c(F)c1)c1cc(Cl)ccc1O [compound 26]	68 (2 μM) %	95 (2 μM) %		
CC1CCC(C)N1c1ccc(NC(=O)c2cc(Cl)ccc2O)cc1F.Cl (centres unmarked) [compound 83]	59 (2 μM) %	80 (2 μM) %		
Cl.O=C(Nc1ccc(OC2CCNC2)c(F)c1)c1cc(Cl)ccc1O (centres unmarked) [compound 55]	16 (2 μM) %	35 (2 μM) %		
Cl.O=C(Nc1ccc(N2CCCNCC2)c(Cl)c1)c1cc(Cl)ccc1O [compound 81]	90 (2 μM) %	92 (2 μM) %	17.8	10.9
O=C(Nc1ccc(N2CCCN(Cc3ccccc3)CC2)c(F)c1)c1cc(Cl)ccc1O [compound 52]	27 (2 μM) %	55 (2 μM) %		
CC(=O)N1CCN(c2ccc(NC(=O)c3cc(Cl)ccc3O)cc2F)CC1 [compound 11]	22 (2 μM) %	40 (2 μM) %		
CN1CCN(c2ccc(NC(=O)c3cc(C#N)ccc3O)cc2F)CC1.Cl [compound 90]	18 (2 μM) %	11 (2 μM) %		
Cl.O=C(Nc1ccc(OCC2CCNCC2)c(F)c1)c1cc(Cl)ccc1O [compound 45]	68 (2 μM) %	76 (2 μM) %		
CCC1CNCCN1c1ccc(NC(=O)c2cc(Cl)ccc2O)cc1F.Cl (centres unmarked) [compound 89]	62 (2 μM) %	62 (2 μM) %		
